{
  "source": "PubChem BioAssay AID1963841",
  "about": "(Molecular Pharmacology Branch, DTP, NCI, 2024);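 further: spheroids exposed to compounds for seven days before readout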;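 on viability, T/C: 100% = DMSO vehicle control viability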",
  "tested_on": "439559-082-T-J2-PDC spheroid viability",
  "test": "Anticancer human tumor 439559-082-T-J2-PDC patient-derived colon adenocarcinoma cell line growth inhibition [POLQ]",
  "details": "spheroids with HUVEC and MSC; for IC50: curve of first compound; for viability, T/C: stronger effect = lower value",
  "how_it_was_run": "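Patient-derived tumour cells were co-cultured with HUVEC and mesenchymal stem cells as multicellular spheroids at 37 °C. They were treated with POLQ inhibitors (novobiocin, ART-558, RP6685) alone or combined with other agents. Top concentrations were at or near clinical Cmax (otherwise 10 microM; SN-38 at 1 microM), decreasing in half-log steps.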",
  "key": {"[1]": {"details": "second compound 0.0316 µM, first compound 0.0316 µM"}, "[2]": {"details": "second compound 0.0316 µM, first compound 0.1 µM"}, "[3]": {"details": "second compound 0.0316 µM, first compound 0.316 µM"}, "[4]": {"details": "second compound 0.0316 µM, first compound 1 µM"}, "[5]": {"details": "second compound 0.0316 µM, first compound 3.16 µM"}, "[6]": {"details": "second compound 0.0316 µM, first compound 10 µM"}, "[7]": {"details": "second compound 0.1 µM, first compound 0.0316 µM"}, "[8]": {"details": "second compound 0.1 µM, first compound 0.1 µM"}, "[9]": {"details": "second compound 0.1 µM, first compound 0.316 µM"}, "[10]": {"details": "second compound 0.1 µM, first compound 1 µM"}, "[11]": {"details": "second compound 0.1 µM, first compound 3.16 µM"}, "[12]": {"details": "second compound 0.1 µM, first compound 10 µM"}, "[13]": {"details": "second compound 0.316 µM, first compound 0.0316 µM"}, "[14]": {"details": "second compound 0.316 µM, first compound 0.1 µM"}, "[15]": {"details": "second compound 0.316 µM, first compound 0.316 µM"}, "[16]": {"details": "second compound 0.316 µM, first compound 1 µM"}, "[17]": {"details": "second compound 0.316 µM, first compound 3.16 µM"}, "[18]": {"details": "second compound 0.316 µM, first compound 10 µM"}, "[19]": {"details": "second compound 1 µM, first compound 0.0316 µM"}, "[20]": {"details": "second compound 1 µM, first compound 0.1 µM"}, "[21]": {"details": "second compound 1 µM, first compound 0.316 µM"}, "[22]": {"details": "second compound 1 µM, first compound 1 µM"}, "[23]": {"details": "second compound 1 µM, first compound 3.16 µM"}, "[24]": {"details": "second compound 1 µM, first compound 10 µM"}, "[25]": {"details": "second compound 3.16 µM, first compound 0.0316 µM"}, "[26]": {"details": "second compound 3.16 µM, first compound 0.1 µM"}, "[27]": {"details": "second compound 3.16 µM, first compound 0.316 µM"}, "[28]": {"details": "second compound 3.16 µM, first compound 1 µM"}, "[29]": {"details": "second compound 3.16 µM, first compound 3.16 µM"}, "[30]": {"details": "second compound 3.16 µM, first compound 10 µM"}, "[31]": {"details": "second compound 10 µM, first compound 0.0316 µM"}, "[32]": {"details": "second compound 10 µM, first compound 0.1 µM"}, "[33]": {"details": "second compound 10 µM, first compound 0.316 µM"}, "[34]": {"details": "second compound 10 µM, first compound 1 µM"}, "[35]": {"details": "second compound 10 µM, first compound 3.16 µM"}, "[36]": {"details": "second compound 10 µM, first compound 10 µM"}},
  "data": [
    {"smiles": "CC1COCCN1c1cc(C2(O)CC3CCC(C2)O3)c2cnn(-c3ccn[nH]3)c2n1", "note": "(centres undefined) + Cc1cccc(N(C)C(=O)C2C(O)CCN2c2nc(C)cc(C(F)(F)F)c2C#N)c1", "values": [
      {"measurement": "IC50", "setting": "second compound 0.0316 µM", "result": 3.84, "unit": "µM"},
      {"measurement": "IC50", "setting": "second compound 0.1 µM", "result": 5.32, "unit": "µM"},
      {"measurement": "IC50", "setting": "second compound 0.316 µM", "result": 3.18, "unit": "µM"},
      {"measurement": "IC50", "setting": "second compound 1 µM", "result": 4.98, "unit": "µM"},
      {"measurement": "IC50", "setting": "second compound 3.16 µM", "result": 2.87, "unit": "µM"},
      {"measurement": "IC50", "setting": "second compound 10 µM", "result": 2.93, "unit": "µM"},
      {"measurement": "viability, T/C", "setting": "[1]", "result": 96.4, "unit": "%"},
      {"measurement": "viability, T/C", "setting": "[2]", "result": 79.1, "unit": "%"},
      {"measurement": "viability, T/C", "setting": "[3]", "result": 71.1, "unit": "%"},
      {"measurement": "viability, T/C", "setting": "[4]", "result": 60.9, "unit": "%"},
      {"measurement": "viability, T/C", "setting": "[5]", "result": 47.7, "unit": "%"},
      {"measurement": "viability, T/C", "setting": "[6]", "result": 46.4, "unit": "%"},
      {"measurement": "viability, T/C", "setting": "[7]", "result": 95.6, "unit": "%"},
      {"measurement": "viability, T/C", "setting": "[8]", "result": 86.1, "unit": "%"},
      {"measurement": "viability, T/C", "setting": "[9]", "result": 66, "unit": "%"},
      {"measurement": "viability, T/C", "setting": "[10]", "result": 60.1, "unit": "%"},
      {"measurement": "viability, T/C", "setting": "[11]", "result": 49.3, "unit": "%"},
      {"measurement": "viability, T/C", "setting": "[12]", "result": 49, "unit": "%"},
      {"measurement": "viability, T/C", "setting": "[13]", "result": 94.5, "unit": "%"},
      {"measurement": "viability, T/C", "setting": "[14]", "result": 79.4, "unit": "%"},
      {"measurement": "viability, T/C", "setting": "[15]", "result": 70.2, "unit": "%"},
      {"measurement": "viability, T/C", "setting": "[16]", "result": 57, "unit": "%"},
      {"measurement": "viability, T/C", "setting": "[17]", "result": 48.4, "unit": "%"},
      {"measurement": "viability, T/C", "setting": "[18]", "result": 46.6, "unit": "%"},
      {"measurement": "viability, T/C", "setting": "[19]", "result": 95.5, "unit": "%"},
      {"measurement": "viability, T/C", "setting": "[20]", "result": 78.4, "unit": "%"},
      {"measurement": "viability, T/C", "setting": "[21]", "result": 69.3, "unit": "%"},
      {"measurement": "viability, T/C", "setting": "[22]", "result": 61, "unit": "%"},
      {"measurement": "viability, T/C", "setting": "[23]", "result": 51.5, "unit": "%"},
      {"measurement": "viability, T/C", "setting": "[24]", "result": 46.8, "unit": "%"},
      {"measurement": "viability, T/C", "setting": "[25]", "result": 91.3, "unit": "%"},
      {"measurement": "viability, T/C", "setting": "[26]", "result": 80.8, "unit": "%"},
      {"measurement": "viability, T/C", "setting": "[27]", "result": 66.7, "unit": "%"},
      {"measurement": "viability, T/C", "setting": "[28]", "result": 57, "unit": "%"},
      {"measurement": "viability, T/C", "setting": "[29]", "result": 48.9, "unit": "%"},
      {"measurement": "viability, T/C", "setting": "[30]", "result": 46.1, "unit": "%"},
      {"measurement": "viability, T/C", "setting": "[31]", "result": 80.9, "unit": "%"},
      {"measurement": "viability, T/C", "setting": "[32]", "result": 73.7, "unit": "%"},
      {"measurement": "viability, T/C", "setting": "[33]", "result": 65.5, "unit": "%"},
      {"measurement": "viability, T/C", "setting": "[34]", "result": 55.6, "unit": "%"},
      {"measurement": "viability, T/C", "setting": "[35]", "result": 51.6, "unit": "%"},
      {"measurement": "viability, T/C", "setting": "[36]", "result": 41.1, "unit": "%"}
    ]},
    {"smiles": "O=C(Nc1ccc(O)c(NS(=O)(=O)c2ccc(F)cc2)c1)c1ccc(-c2ccccc2)cc1", "note": "+ Cc1cccc(N(C)C(=O)C2C(O)CCN2c2nc(C)cc(C(F)(F)F)c2C#N)c1", "values": [
      {"measurement": "IC50", "setting": "second compound 0.0316 µM", "result": "> 10", "unit": "µM"},
      {"measurement": "IC50", "setting": "second compound 0.1 µM", "result": "> 10", "unit": "µM"},
      {"measurement": "IC50", "setting": "second compound 0.316 µM", "result": "> 10", "unit": "µM"},
      {"measurement": "IC50", "setting": "second compound 1 µM", "result": "> 10", "unit": "µM"},
      {"measurement": "IC50", "setting": "second compound 3.16 µM", "result": "> 10", "unit": "µM"},
      {"measurement": "IC50", "setting": "second compound 10 µM", "result": "> 10", "unit": "µM"},
      {"measurement": "viability, T/C", "setting": "[1]", "result": 92, "unit": "%"},
      {"measurement": "viability, T/C", "setting": "[2]", "result": 119, "unit": "%"},
      {"measurement": "viability, T/C", "setting": "[3]", "result": 86.7, "unit": "%"},
      {"measurement": "viability, T/C", "setting": "[4]", "result": 97.3, "unit": "%"},
      {"measurement": "viability, T/C", "setting": "[5]", "result": 103, "unit": "%"},
      {"measurement": "viability, T/C", "setting": "[6]", "result": 102, "unit": "%"},
      {"measurement": "viability, T/C", "setting": "[7]", "result": 101, "unit": "%"},
      {"measurement": "viability, T/C", "setting": "[8]", "result": 106, "unit": "%"},
      {"measurement": "viability, T/C", "setting": "[9]", "result": 100, "unit": "%"},
      {"measurement": "viability, T/C", "setting": "[10]", "result": 98.6, "unit": "%"},
      {"measurement": "viability, T/C", "setting": "[11]", "result": 107, "unit": "%"},
      {"measurement": "viability, T/C", "setting": "[12]", "result": 99.8, "unit": "%"},
      {"measurement": "viability, T/C", "setting": "[13]", "result": 101, "unit": "%"},
      {"measurement": "viability, T/C", "setting": "[14]", "result": 108, "unit": "%"},
      {"measurement": "viability, T/C", "setting": "[15]", "result": 92.4, "unit": "%"},
      {"measurement": "viability, T/C", "setting": "[16]", "result": 96.7, "unit": "%"},
      {"measurement": "viability, T/C", "setting": "[17]", "result": 105, "unit": "%"},
      {"measurement": "viability, T/C", "setting": "[18]", "result": 118, "unit": "%"},
      {"measurement": "viability, T/C", "setting": "[19]", "result": 96.6, "unit": "%"},
      {"measurement": "viability, T/C", "setting": "[20]", "result": 93.6, "unit": "%"},
      {"measurement": "viability, T/C", "setting": "[21]", "result": 98.4, "unit": "%"},
      {"measurement": "viability, T/C", "setting": "[22]", "result": 97.7, "unit": "%"},
      {"measurement": "viability, T/C", "setting": "[23]", "result": 101, "unit": "%"},
      {"measurement": "viability, T/C", "setting": "[24]", "result": 115, "unit": "%"},
      {"measurement": "viability, T/C", "setting": "[25]", "result": 98.1, "unit": "%"},
      {"measurement": "viability, T/C", "setting": "[26]", "result": 93.7, "unit": "%"},
      {"measurement": "viability, T/C", "setting": "[27]", "result": 85.7, "unit": "%"},
      {"measurement": "viability, T/C", "setting": "[28]", "result": 104, "unit": "%"},
      {"measurement": "viability, T/C", "setting": "[29]", "result": 109, "unit": "%"},
      {"measurement": "viability, T/C", "setting": "[30]", "result": 99, "unit": "%"},
      {"measurement": "viability, T/C", "setting": "[31]", "result": 97.8, "unit": "%"},
      {"measurement": "viability, T/C", "setting": "[32]", "result": 84.6, "unit": "%"},
      {"measurement": "viability, T/C", "setting": "[33]", "result": 107, "unit": "%"},
      {"measurement": "viability, T/C", "setting": "[34]", "result": 86, "unit": "%"},
      {"measurement": "viability, T/C", "setting": "[35]", "result": 104, "unit": "%"},
      {"measurement": "viability, T/C", "setting": "[36]", "result": 109, "unit": "%"}
    ]}
  ]
}
